Test results: patent US20220362163A1, “METHODS AND COMPOSITIONS FOR CANCER TREATMENT USING NANOPARTICLES CONJUGATED WITH MULTIPLE LIGANDS FOR BINDING RECEPTORS ON NK CELLS” (The University of North Carolina at Chapel Hill, priority 2019, published 2022)

System: A431 tumor
Assay: A431 tumor model in T-cell deficient Nu mice
Details: i.v. at 6, 8, 10 days post-inoculation

COc1cccc2c1C(=O)c1c(O)c3c(c(O)c1C2=O)C[C@@](O)(C(=O)CO)C[C@@H]3O[C@H]1C[C@H](N)[C@@H](O)[C@H](C)O1 [free EPI, epirubicin]
effect on tumor growth: slightly reduced the rate of tumor growth
